Article PMC12699035, “Exploring market-approved azoles as potential breast cancer therapeutics targeting the VEGFR-2 biotarget” (Scientific Reports, 2025)
Read-outs that look alike come from different tables or passages of the source.

Key:
[1] = system: MCF-7 cells; assay: Cytotoxicity against MCF-7 cells, MTT assay (single dose and five doses); details: for Average OD / OD1 / OD2 / OD3: MCF-7, single dose 100 μg/mL, MTT optical density; for Average OD: average of triplicates; for OD1: replicate 1; for OD2: replicate 2; for OD3: replicate 3
[2] = system: MCF-10A cells; assay: Cytotoxicity against MCF-10A cells, MTT assay (five doses); type: cell-based; details: Homo sapiens, MCF-10A normal cells, five dose concentrations, n = 3, read-out: MCF-10A IC50 ± SD
[3] = target: T1, VEGFR-2 (Homo sapiens, UniProt P35968); assay: VEGFR-2 kinase inhibition, luminescent VEGFR2 (KDR) kinase assay kit (BPS Bioscience # 40325); type: biochemical; details: for VEGFR-2 enzyme inhibition LogIC50 (Fig. 3): unit not given
T1 construct: purchased BPS Bioscience 40325
T1 sequence (P35968 20-1356): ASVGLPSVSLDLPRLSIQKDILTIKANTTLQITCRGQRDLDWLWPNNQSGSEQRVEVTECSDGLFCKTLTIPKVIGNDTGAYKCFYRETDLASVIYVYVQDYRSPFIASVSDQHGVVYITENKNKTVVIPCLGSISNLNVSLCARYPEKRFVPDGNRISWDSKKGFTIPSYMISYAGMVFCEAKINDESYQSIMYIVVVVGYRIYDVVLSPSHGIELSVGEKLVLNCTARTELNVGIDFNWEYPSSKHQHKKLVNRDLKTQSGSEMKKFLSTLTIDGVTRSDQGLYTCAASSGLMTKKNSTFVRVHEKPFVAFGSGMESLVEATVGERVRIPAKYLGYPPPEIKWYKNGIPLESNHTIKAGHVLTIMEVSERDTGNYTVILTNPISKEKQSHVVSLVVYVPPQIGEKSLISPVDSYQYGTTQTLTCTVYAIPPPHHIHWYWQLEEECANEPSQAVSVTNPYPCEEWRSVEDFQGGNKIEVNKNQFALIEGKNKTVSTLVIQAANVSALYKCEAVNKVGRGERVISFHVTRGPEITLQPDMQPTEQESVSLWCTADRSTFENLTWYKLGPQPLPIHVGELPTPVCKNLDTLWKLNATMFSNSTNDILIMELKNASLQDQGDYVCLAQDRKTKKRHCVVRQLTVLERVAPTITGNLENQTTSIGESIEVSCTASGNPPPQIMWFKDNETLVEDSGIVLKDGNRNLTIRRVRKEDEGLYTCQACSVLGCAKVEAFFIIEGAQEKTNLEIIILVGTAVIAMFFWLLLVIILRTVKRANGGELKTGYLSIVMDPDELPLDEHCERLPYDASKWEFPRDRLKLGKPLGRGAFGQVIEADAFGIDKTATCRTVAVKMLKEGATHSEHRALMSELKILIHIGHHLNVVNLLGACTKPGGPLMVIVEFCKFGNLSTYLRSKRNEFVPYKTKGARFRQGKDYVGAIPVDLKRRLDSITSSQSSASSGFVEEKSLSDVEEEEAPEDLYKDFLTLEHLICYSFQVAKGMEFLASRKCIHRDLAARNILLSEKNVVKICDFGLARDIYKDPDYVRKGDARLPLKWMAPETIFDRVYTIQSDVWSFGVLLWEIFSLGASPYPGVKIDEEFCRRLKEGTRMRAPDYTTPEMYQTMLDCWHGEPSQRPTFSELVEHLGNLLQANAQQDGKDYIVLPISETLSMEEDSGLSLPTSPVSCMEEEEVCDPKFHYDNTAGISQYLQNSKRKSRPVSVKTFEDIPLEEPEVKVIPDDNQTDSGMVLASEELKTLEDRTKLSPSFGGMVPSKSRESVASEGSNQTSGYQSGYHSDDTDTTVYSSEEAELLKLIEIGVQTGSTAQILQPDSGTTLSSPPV
Protocol: Functionally, this pathway operates in autocrine and intracrine modes to promote cell proliferation, survival, and resistance to apoptosis through downstream effectors such as PI3K/AKT and p38 MAPK.
(§1) SIT, FLU and TNZ were tested using the five dose sigmoidal curves to determine the IC50 values. […] At the end of these experiment, anti-tumor potentiality was recorded using tumor weight (mg), tumor volume (mm^3), and the tumor inhibition ratio (TIR%). Hematological parameters of Hemoglobin (Hb, g/dL), RBC’s count (10^6/μL), and WBC’s count (10^3/μL) were investigated, along with histopathological and immunohistochemical staining of the VEGR2 protein.
Compounds Itraconazole. […] [12].

[4] = system: VEGF; assay: Immunohistochemical staining of VEGF in SEC tumor sections; type: in vivo, mice; details: IHC of SEC tumor
Source text: VEGF has been considered a biomarker for VEGFR-2 bioactivity, as it binds to and activates this kinase receptor, playing a crucial role in angiogenesis. High VEGF levels are often associated with increased VEGFR-2 expression and activity, making VEGF a marker for VEGFR-2's function and tumor growth. […] The staining intensity is strong (+ 3), with dark brown cytoplasmic staining in most tumor cells. The immunoreactive score (IRS), calculated by multiplying the staining intensity score and the percentage of positive cells, is 9–12, indicating a high level of VEGF expression. This intense VEGF expression correlates with the presence of numerous irregular and dilated blood vessels in the tumor microenvironment.
The paraffin-infiltrated tissue was sliced into thin sections (4-6 μm) using a microtome and floated in a water bath. The sections were then mounted onto charged slides and left to dry overnight. The use of charged slides ensures the sections adhere properly to the slide. To carry out antibody staining, the paraffin wax was removed from the sample, and the tissue was rehydrated. The paraffin was eliminated by placing the tissue sections in three containers of xylene for 5 minutes each. Rehydration began by immersing the sections in two containers of 100% ethanol for 10 minutes each, followed by two containers of 95% ethanol for 10 minutes each. Finally, to complete the rehydration, the sections were washed twice in deionized water for 5 minutes each.
For antigen retrieval, the slides are heated in 10 mM Tris/1 mM EDTA, pH 9.0, kept at a sub-boiling temperature for 18 minutes, and then allowed to cool at room temperature for 30 minutes. For chromogenic staining detection, the sections are rinsed in deionized water three times for 5 minutes each, and then the endogenous peroxidase activity in the tissue sections is quenched to prevent high background staining by incubating the sections in 3% hydrogen peroxide for 10 minutes. Afterward, the sections are washed twice in deionized water for 5 minutes each, followed by a single wash in wash buffer for 5 minutes. A hydrophobic pen is used to carefully draw a large circle around the sample, ensuring it doesn’t touch the sample, creating a hydrophobic boundary to achieve optimal antibody staining quality. To prevent non-specific antibodies from binding to the tissue, each section is blocked with 100–400 µl of blocking solution for 1 hour at room temperature in a humidified chamber. The blocking solution was discarded, and 100–400 µl of diluted primary antibody was applied. […]
The slides were incubated overnight at 4°C in a humidified chamber. […] Then, 100–400 µl of Signal Stain DAB was applied to each section and monitored closely for 1–10 minutes until an acceptable staining intensity was achieved. […]

[5] = system: Solid Ehrlich Carcinoma (SEC); assay: In vivo anti-tumor activity in solid Ehrlich carcinoma (SEC)-bearing mice (tumor mass, volume, TIR%, hematology, histopathology)
Protocol: All experimental protocols were approved by the Research Ethics Committee and Institutional Animal Care and Use Committee, Faculty of Science, Suez Canal University with the ethical code (SCU-Sci-REC439/2025), and all methods were carried out according to the European Union guidelines and in accordance with ARRIVE guidelines. All animals were anesthetized using a combination of Xylazine 10 mg/kg- Ketamine 100 mg/kg of body weight, respectively, prior sacrifice via cervical decapitation.
In all graphs, treatments were administrated intraperitoneal (IP) with 6 mg/Kg B.Wt. for two weeks, day after day.
as §1, with “values. They were tested for the VEGFR2 inhibition using VEGFR2 Kinase Inhibition Assay Kit Catalog # 40325 BPS Bioscience, San Diego, CA.” for “values.”
Adult female Swiss albino mice purchased from Faculty of Pharmacy, Suez Canal University, Ismailia, Egypt, with an average body weight of (18-23) g was used. Mice were housed under constant conditions of 12 h light/dark cycle in a […], with free access to standard laboratory mice food and water. All procedures related to care and maintenance of the animals were performed according to the international guiding principles for animal research and approved by the Faculty of Pharmacy, Suez Canal University bioethics and animal ethics committee.
Solid Ehrlich carcinoma (SEC) was got from the National Cancer Institute (Cairo University, Egypt). The tumor cell line proliferated in mice through serial intraperitoneal (I.P.) transplantation of a volume of 0.2 mL physiological saline containing 1×10^6 viable cells for 24 h. SEC cells were collected 7 days after I.P. implantation. The harvested cells were diluted with saline to obtain a concentration of 5×10^6 viable SEC cells/mL. A volume of 0.2 mL saline contains 1×10^6 SEC cells that were I.P. implanted into each normal mouse. SEC cells (1×10^6 tumor cells/mouse) were implanted subcutaneously into the right thigh of the hind limb.
The experimental animals were randomly divided into four groups. Group 1 served as the normal saline control. Group 2 served as the SEC control (1×10^6 cells/mouse). Group 3 served as the ITR-treated group (6 mg/kg B.Wt., I.P.). […] Body weight and survival were recorded daily until the 24th day in both treated and control groups. At the end of the experiment, anesthetized animals were then sacrificed for evaluation of the antitumor activity and histopathological examination.
It includes tumor volume, weight, and tumor inhibition ratio (TIR%). Time interval measurements of tumor volume using a digital Vernier caliper (Tricle Brand, Shanghai, China). Measure tumor length and width using a clipper and then calculate tumor volume using formulations V = (L x W x W)/2, where V is tumor volume, W is tumor width, L is tumor length. While TIR% was calculated according to the following equation Tumor volume Control-Tumor volume (treated)Tumor volume (control)x 100.
Specimens of liver-sacrificed mice were fixed in 10% saline formalin. The fixed liver specimens were Dehydrated in ascending series of ethyl alcohol and embedded in paraffin.

[6] = Homo sapiens, MCF7, read-out: Average viability%
[7] = Homo sapiens, MCF7, read-out: Viability (%) 1
[8] = Homo sapiens, MCF7, read-out: Viability (%) 2
[9] = Homo sapiens, MCF7, read-out: Viability (%) 3
[10] = Homo sapiens, MCF7, read-out: MCF-7 IC50 ± SD, MCF-7, five dose concentrations, MTT, n = 3
[11] = enzyme inhibition, dose-response, non-linear regression, read-out: VEGFR-2 inhibition IC50

Structure (SMILES)	viability at 100 µg/mL [1, 6]	viability at 100 µg/mL [1, 7]	viability at 100 µg/mL [1, 8]	viability at 100 µg/mL [1, 9]	Average OD [1]	OD1 [1]	OD2 [1]	OD3 [1]	IC50 [2]	IC50 [1, 10]	VEGFR-2 enzyme inhibition LogIC50 (Fig. 3) ([3]; dose-response curve fit)	further results
Clc1ccc(COC(Cn2ccnc2)c2ccc(Cl)cc2Cl)c(Cl)c1 (stereo not shown) [Miconazole, miconazole]	76%	77%	76%	75%	2.45	2.48	2.45	2.42	–	–	–	–
O=C1CN(/N=C/c2ccc(-c3ccc([N+](=O)[O-])cc3)o2)C(O)=N1 [Dantrolene, dantrolene]	70%	72%	65.7%	72.5%	2.26	2.32	2.12	2.34	–	–	–	–
N[C@@H](CC(=O)N1CCn2c(nnc2C(F)(F)F)C1)Cc1cc(F)c(F)cc1F [Sitagliptin, sitagliptin]	64.6%	65.7%	64.4%	63.8%	2.08	2.12	2.08	2.06	37.6 ± 1.9 µM	183 µM	2.016	IC50 ([1]; read-out: MCF-7 IC50 ± SD, MCF-7, five dose concentrations, MTT, n = 3, listed as SIT): 183 ± 3.1 µM; IC50 [3, 11]: 104000 nM
CCS(=O)(=O)CCn1c([N+](=O)[O-])cnc1C [Tinidazole, tinidazole]	67.5%	68.2%	66.2%	68%	2.16	2.20	2.14	2.19	51.5 ± 1.8 µM	301 µM	1.913	IC50 ([1]; read-out: MCF-7 IC50 ± SD, MCF-7, five dose concentrations, MTT, n = 3, listed as TNZ): 301 ± 7.6 µM; IC50 ([3]; dose-response curve fit, unit inferred, read-out: VEGFR-2 enzyme inhibition IC50 (Fig. 3)): 81900 nM; IC50 ([3]; enzyme inhibition, unit printed as nM in text, read-out: VEGFR-2 inhibition IC50): 81900 nM
CNC(=O)c1cc(Oc2ccc(NC(=O)Nc3ccc(Cl)c(C(F)(F)F)c3)cc2)ccn1 [Sorafenib]	–	–	–	–	–	–	–	–	–	–	–	immunoreactive score (IRS) ([4]; scale 0-12, SEC control 9–12): 1–2; percentage of VEGF-positive tumor cells ([4]; SEC control 80–90%): 10–30%; solid tumor mass ([5]; 6 mg/Kg B.Wt. IP, two weeks, day after day, SEC control 469 mg): 229 mg; tumor volume ([5]; 6 mg/Kg B.Wt. IP, two weeks, day after day, SEC control 420 mm^3): 214 mm^3; WBC's count ([5]; 6 mg/Kg IP, normal 5, SEC control 9.2): 6.6 10^3/µL; RBC's count ([5]; 6 mg/Kg IP, normal 6.9, SEC control 3.1): 4.9 10^6/µL; Hemoglobin level ([5]; 6 mg/Kg IP, normal 11.6, SEC control 4.6): 6.9 g/dL; Tumor cell density (histopathology of SEC mass) ([5]; isolated tumor mass, SEC control 2.2 cm^2): 0.5 cm^2
CCCCc1nc(Cl)c(CO)n1Cc1ccc(-c2ccccc2-c2nn[nH]n2)cc1 [Losartan, losartan]	71%	71.4%	69.1%	72.3%	2.29	2.30	2.23	2.33	–	–	–	–
COc1cccc2c1C(=O)c1c(O)c3c(c(O)c1C2=O)C[C@@](O)(C(=O)CO)C[C@@H]3O[C@H]1C[C@H](N)[C@H](O)[C@H](C)O1 [DOX, doxorubicin]	46.2%	41.9%	42.9%	53.6%	1.49	1.35	1.38	1.73	38.9 ± 1.1 µM	3.91 ± 0.6 µM	–	–
OC(Cn1cncn1)(Cn1cncn1)c1ccc(F)cc1F [Fluconazole, fluconazole]	64.3%	62.7%	67.3%	62.9%	2.07	2.02	2.17	2.03	32.3 ± 1.77 µM	260 µM	2.535	IC50 ([1]; read-out: MCF-7 IC50 ± SD, MCF-7, five dose concentrations, MTT, n = 3, listed as FLU): 261 ± 6.8 µM; IC50 [3, 11]: 343000 nM
